Consider four compounds from BindingDB's records for doi:10.1021/bi1013479 (University of California Irvine, 2010).

Common to all, as to experiment: Inhibitory Assay
Assay [1] addresses Nitric oxide synthase, brain (Homo sapiens, UniProt P29475). The text has this:
(§1) Inhibition assay using nitric oxide synthases.

For assay [2], the target named is T1, Nitric oxide synthase, endothelial (Homo sapiens, UniProt P29474).
T1 sequence (P29474 whole entry): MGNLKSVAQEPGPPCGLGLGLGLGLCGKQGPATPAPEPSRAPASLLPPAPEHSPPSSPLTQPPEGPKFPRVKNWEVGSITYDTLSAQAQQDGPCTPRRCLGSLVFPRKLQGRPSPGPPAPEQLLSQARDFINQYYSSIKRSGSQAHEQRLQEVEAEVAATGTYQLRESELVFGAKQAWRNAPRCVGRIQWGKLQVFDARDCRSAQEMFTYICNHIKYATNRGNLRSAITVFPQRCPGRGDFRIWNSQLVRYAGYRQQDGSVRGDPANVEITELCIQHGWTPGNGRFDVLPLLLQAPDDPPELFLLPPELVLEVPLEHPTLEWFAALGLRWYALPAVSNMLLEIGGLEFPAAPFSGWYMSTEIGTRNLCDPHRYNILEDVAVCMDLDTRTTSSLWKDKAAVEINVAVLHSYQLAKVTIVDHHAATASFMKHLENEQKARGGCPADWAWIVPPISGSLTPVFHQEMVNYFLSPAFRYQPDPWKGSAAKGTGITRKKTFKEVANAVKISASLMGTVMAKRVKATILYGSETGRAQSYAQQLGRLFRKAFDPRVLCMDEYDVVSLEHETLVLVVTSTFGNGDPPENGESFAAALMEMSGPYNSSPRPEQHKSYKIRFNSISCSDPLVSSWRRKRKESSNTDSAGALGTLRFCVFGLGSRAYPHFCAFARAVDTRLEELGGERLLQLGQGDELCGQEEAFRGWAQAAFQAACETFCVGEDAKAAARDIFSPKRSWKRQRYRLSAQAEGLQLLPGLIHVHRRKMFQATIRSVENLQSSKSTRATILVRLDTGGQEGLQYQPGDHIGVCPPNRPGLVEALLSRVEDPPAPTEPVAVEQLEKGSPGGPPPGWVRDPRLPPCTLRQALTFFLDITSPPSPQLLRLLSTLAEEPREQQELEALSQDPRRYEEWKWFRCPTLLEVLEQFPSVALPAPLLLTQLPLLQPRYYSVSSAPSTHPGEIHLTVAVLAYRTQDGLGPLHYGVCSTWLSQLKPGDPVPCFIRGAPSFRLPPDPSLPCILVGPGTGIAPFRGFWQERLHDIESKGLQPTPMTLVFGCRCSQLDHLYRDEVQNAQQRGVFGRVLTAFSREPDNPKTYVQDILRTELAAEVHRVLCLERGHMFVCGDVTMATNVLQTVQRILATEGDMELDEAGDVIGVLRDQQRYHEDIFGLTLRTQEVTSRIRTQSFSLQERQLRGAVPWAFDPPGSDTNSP
Excerpt: as §1

The target in assay [3] is Nitric oxide synthase, inducible (Homo sapiens, UniProt P35228).
Chain of Nitric oxide synthase, inducible (P35228 whole entry): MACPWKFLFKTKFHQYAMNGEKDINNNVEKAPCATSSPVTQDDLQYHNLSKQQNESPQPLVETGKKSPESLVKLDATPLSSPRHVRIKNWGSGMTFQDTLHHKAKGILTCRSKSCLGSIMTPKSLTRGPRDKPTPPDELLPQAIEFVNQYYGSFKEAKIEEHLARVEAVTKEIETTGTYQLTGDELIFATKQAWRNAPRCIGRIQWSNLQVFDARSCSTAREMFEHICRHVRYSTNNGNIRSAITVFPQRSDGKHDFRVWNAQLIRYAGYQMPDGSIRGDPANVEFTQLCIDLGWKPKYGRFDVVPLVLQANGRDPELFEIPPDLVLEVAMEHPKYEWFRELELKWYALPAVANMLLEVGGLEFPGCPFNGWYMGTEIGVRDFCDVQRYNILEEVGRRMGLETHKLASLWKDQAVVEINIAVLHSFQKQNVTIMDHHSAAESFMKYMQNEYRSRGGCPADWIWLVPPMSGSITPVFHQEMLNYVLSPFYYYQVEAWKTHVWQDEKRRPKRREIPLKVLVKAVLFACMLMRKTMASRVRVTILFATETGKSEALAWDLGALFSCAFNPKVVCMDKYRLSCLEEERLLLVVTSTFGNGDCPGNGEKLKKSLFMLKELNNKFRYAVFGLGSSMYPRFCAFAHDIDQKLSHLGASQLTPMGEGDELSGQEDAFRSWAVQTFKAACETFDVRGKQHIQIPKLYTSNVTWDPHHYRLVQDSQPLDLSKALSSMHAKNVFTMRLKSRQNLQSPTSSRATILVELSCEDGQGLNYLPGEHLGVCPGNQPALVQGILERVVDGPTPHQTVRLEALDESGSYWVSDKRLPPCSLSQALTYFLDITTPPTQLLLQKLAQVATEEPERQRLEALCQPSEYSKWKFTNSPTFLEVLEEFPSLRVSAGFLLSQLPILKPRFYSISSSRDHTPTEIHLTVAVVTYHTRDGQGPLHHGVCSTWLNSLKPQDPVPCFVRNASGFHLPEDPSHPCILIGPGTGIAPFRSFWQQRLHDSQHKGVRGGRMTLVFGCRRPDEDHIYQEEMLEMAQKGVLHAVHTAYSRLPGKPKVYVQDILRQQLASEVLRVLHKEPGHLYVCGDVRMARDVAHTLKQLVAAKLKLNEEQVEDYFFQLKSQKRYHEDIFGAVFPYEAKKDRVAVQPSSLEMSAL
Excerpt: as §1

SMILES strings stand for the structures.

Chain of Nitric oxide synthase, brain (P29475 whole entry): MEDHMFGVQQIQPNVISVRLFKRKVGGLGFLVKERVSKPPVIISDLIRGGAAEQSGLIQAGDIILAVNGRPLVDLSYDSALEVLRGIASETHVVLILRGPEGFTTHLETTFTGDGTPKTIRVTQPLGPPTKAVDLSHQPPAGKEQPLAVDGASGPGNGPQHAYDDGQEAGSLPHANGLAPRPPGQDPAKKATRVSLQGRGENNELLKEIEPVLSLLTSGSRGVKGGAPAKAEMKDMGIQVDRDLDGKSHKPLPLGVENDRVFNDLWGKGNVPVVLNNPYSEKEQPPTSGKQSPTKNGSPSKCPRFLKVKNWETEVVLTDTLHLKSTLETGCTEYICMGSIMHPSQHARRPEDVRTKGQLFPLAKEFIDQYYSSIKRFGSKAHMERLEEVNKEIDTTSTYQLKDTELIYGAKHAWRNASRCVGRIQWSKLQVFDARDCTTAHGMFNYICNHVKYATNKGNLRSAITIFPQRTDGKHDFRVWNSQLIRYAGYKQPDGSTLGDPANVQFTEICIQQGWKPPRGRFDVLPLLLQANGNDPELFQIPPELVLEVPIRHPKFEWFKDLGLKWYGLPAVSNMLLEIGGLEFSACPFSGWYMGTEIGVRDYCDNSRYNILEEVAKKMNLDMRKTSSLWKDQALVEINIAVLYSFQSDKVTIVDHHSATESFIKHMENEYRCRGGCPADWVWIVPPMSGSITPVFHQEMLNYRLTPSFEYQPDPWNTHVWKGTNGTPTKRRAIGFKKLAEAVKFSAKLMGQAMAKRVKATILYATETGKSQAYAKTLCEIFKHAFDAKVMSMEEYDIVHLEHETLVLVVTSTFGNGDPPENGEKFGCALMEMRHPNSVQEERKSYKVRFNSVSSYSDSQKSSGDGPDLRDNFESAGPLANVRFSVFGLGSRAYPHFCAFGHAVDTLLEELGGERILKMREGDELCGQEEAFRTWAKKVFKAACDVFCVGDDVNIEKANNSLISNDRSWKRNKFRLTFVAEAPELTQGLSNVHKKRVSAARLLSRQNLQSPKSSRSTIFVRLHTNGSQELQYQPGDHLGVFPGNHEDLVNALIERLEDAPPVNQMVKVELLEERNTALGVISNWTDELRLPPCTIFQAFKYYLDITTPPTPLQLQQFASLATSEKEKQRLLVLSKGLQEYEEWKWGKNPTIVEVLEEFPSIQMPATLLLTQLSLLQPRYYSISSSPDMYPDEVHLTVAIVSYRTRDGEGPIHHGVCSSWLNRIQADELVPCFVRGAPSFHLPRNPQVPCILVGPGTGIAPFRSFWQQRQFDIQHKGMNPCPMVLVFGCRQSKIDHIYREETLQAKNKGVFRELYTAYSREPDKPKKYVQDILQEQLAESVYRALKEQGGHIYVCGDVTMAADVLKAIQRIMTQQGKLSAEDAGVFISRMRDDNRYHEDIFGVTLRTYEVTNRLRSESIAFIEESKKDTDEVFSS

Take `Cc1cc(N)nc(CCc2cccc(CCc3cc(C)nc(N)c3)n2)c1`: the figures for the Ki in assay [1], in assay [2] and in assay [3] were 0.195 µM, 20 µM and 12.6 µM, respectively.

Consider `Cc1cc(N)nc(CCc2cc(N)cc(CCc3cc(C)cc(N)n3)c2)c1` [6,6'-[(5-aminobenzene-1,3-diyl)diethane-2,1-diyl]bis(4-methylpyridin-2-amine)], for which the Ki in assay [1] was found to be 0.085 µM; in assay [2] it was 4.95 µM; in assay [3] it was 3.4 µM.

With `Cc1cc(N)nc(CCc2cncc(CCc3cc(C)nc(N)c3)c2)c1` [6-(2-{5-[2-(2-amino-6-methylpyridin-4-yl)ethyl]pyridin-3-yl}ethyl)-4-methylpyridin-2-amine], the Ki in assay [1] came to 0.103 µM; in assay [2] it was 16.1 µM; in assay [3], 1.91 µM.

Regarding `Cc1cc(N)nc(CCc2cccc(CCc3cc(C)cc(N)n3)c2)c1` [NOS Inhibitor, 3h], the inhibition constant Ki in assay [2] came to 4.2 µM; in assay [3], 2.73 µM.

Usually Ki stands for a measure of affinity in units of concentration, obtained from inhibition or displacement.
